Data as given in ChEMBL document CHEMBL1149241 (J Med Chem, 2004).

Molecular target: Beta-secretase 1 (Homo sapiens, UniProt P56817)
Assay: Inhibition of BACE1 by electrochemiluminescence assay

Chain of Beta-secretase 1 (P56817 whole entry): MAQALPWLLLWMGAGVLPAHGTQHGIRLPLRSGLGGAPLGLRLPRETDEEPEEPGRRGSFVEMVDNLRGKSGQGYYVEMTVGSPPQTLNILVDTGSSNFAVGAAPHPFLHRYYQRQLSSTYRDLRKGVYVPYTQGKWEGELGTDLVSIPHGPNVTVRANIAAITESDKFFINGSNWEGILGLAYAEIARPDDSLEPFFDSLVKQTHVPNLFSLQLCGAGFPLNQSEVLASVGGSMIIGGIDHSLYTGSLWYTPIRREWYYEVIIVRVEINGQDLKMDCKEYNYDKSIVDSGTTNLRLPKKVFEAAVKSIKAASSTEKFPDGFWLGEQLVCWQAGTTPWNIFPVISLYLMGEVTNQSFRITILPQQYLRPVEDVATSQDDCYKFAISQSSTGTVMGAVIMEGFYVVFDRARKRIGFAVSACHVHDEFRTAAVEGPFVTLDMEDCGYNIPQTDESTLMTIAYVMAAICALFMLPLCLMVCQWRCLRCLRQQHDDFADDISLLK

IC50 [µM] | SMILES
21 | C[C@@H](NC(=O)c1cc(OCC(=O)NCCCCCN)cc(-c2ccccc2C#N)c1)c1ccccc1
3.4 | C[C@@H](NC(=O)c1cc(OCC(=O)NCCCCCN)cc(OS(=O)(=O)Cc2ccccc2)c1)c1ccccc1
> 100 | CC(NC(=O)c1cc(OCC(=O)NCCCCCN)cc(OS(=O)(=O)Cc2ccccc2)c1)c1ccccc1 (single isomer, unassigned)
